In patent publication US20130084329A1, “COMPOSITIONS FOR EXTERNAL APPLICATION, CONTAINING ADENOSYLCOBALAMIN FOR IMPROVEMENT OF SKIN DISEASES” (HANALL BIOPHARMA CO., LTD., priority 2005, published 2013):
Several values for one entry are separate records, joined by “and”; a condition that tells them apart may be missing. Identical values can stand only once.

Test system: CD4+ T cell (C57BL/6) co-cultured with dendritic cell (BALB/C)
Experiment: Inhibition test of T-cell proliferation, 1 way mixed lymphocyte reaction (MLR), H3-thymidine incorporation
Format: cell-based, mouse
Details: for % of inhibition = [cpm (untreated) - cpm(treated)] / cpm (untreated): T cell proliferation, from photo-nonexposed CPM
From the text: It is typically known that the increase of CD4^+ T cells is observed in atopic dermatitis lesion, and cytokines secreted from CD4^+ T cells make the condition of atopic dermatitis worse (DirkJan Hijnen et al., J Invest Dermatol 125:1149-1155, 2005). Therefore, we tried to determine the therapeutic effectiveness of cobalamin derivatives for treatment of atopic dermatitis by examining the changes of T-cell proliferation before and after photolysis of cobalamin derivatives.
When the T cell separated from one mouse strain and the dendritic cell (DC, antigen presenting cell) separated from another mouse strain are mixed together, the immune response by the T cell occurs. This immune response is a tissue incompatibility reaction due to the difference of the genes of MHC molecules of the two strains.
In this experiment, the target cell (DC) derived from BALB/C strain and the CD4^+ T cell (the responder) derived from C57BL/6 (B6) strain are mixed and co-cultured to induce a 1 way MLR. In this process, several types of cobalamin derivatives (cyanocobalamin, hydroxocobalamin, methylcobalamin, adenosylcobalamin) are treated, and then the intensities of the immune response are measured by comparing the T cell proliferation for each of the cobalamin derivative-treated group.
1) Bone marrow derived dendritic cells were isolated from 8 weeks BALB/c mouse as follows.
2) The femur and tibiae were separated from a mouse, and then soaked in PBS. The muscle tissues were removed from them. Then, the bones were soaked in 70% EtOH for 2 minutes for sterilization, and then EtOH was washed off with PBS.
3) A needle of a 10 ml syringe filled with PBS was inserted into ends of the bones and then PBS was injected into the bones to isolate the bone marrow.
4) The obtained bone marrow was made into a single cell suspension by pipetting.
5) 1˜1.5×10^7 of leukocytes were isolated per one femur or one tibia.
6) Culture medium was prepared (RPMI-1640+Penicillin/Streptomycin, L-Glutamin, 2-MercaptoEtOH, 10% Fetal Bovine Serum, Recombinant mouse GM-CSF). 2×10^6 of BM leukocytes were plated onto 100 mm Petri dish with 10 ml of the culture medium. At this time, […] (in case of 20 ng/ml, 5×10^6 U/mg) of rmGM-CSF was added. (Day 0)
7) Day 3, 10 ml of culture medium (including 200 U/ml GM-CSF) was added.
8) Day 6, culture medium replacement: 10 ml of culture medium from the culture plate was taken, and then centrifuged. The obtained cells were released in a fresh medium containing GM-CSF 200 U/ml, and then they were put back into the original culture plate. Through this process, half of the entire culture medium could be changed to a new medium.
9) Day 8, culture medium replacement: Half of the culture medium was replaced in the same way as day 6.
10) Day 9, after collecting BM-DCs by pipetting carefully, and centrifuging at 300 g/RT/5 min, they were poured into 10 ml of fresh culture medium. The BM-DCs were plated on 100 mm tissue culture plate. 100 U/ml of rmGM-CSF and 1 μg/ml of LPS were added to the culture medium. The BM-DCs were fully maturated by culturing for an extra day.
1) The spleen was separated out from C57BL/6 mouse, and was ground by using the nylon mesh in PBS and then centrifuged at 300×g for 4 min.
2) The obtained cell pellet was treated with 5 ml of ACK RBC lysing solution for 5 minutes in RT, and then washed with PBS.
3) After resuspending the cells in 500 μl of MACs buffer (PBS+EDTA/BSA), the cells were stained with 50 μl of anti-CD4 microbead. Then, the CD4^+ T cell (1×10^7 cells) were separated from the cells according to the manual of MACS kit (Miltenyi Company).
1) The experiment for determining MLR response was designed to comprise control group, photo-exposed group, and photo-nonexposed group as follows. Each group was tested in triplicate according to concentration and substance on 3 wells. […]

[1] = 500 μM (highest concentration), 500 µM
[2] = 10 μM (lowest concentration), 10 µM

C/C1=C2/[N-][C@H]([C@H](CC(N)=O)[C@@]2(C)CCC(=O)NC[C@@H](C)OP(=O)([O-])O[C@H]2[C@@H](O)[C@@H](n3cnc4cc(C)c(C)cc43)O[C@@H]2CO)[C@]2(C)N=C(/C(C)=C3N=C(/C=C4N=C1[C@@H](CCC(N)=O)C\4(C)C)[C@@H](CCC(N)=O)[C@]\3(C)CC(N)=O)[C@@H](CCC(N)=O)[C@]2(C)CC(N)=O.[Co+3].[OH-] [H-co, hydroxocobalamin]
% of inhibition = [cpm (untreated) - cpm(treated)] / cpm (untreated) (30 μM): 25.76% and 23.13% and 24.28% | % of inhibition = [cpm (untreated) - cpm(treated)] / cpm (untreated) (100 μM): 37.0706% and 42.13% and 34.41% | % of inhibition = [cpm (untreated) - cpm(treated)] / cpm (untreated) [1]: 67.35% and 75.19% and 70.9% | radioactivity (CPM), single wells of triplicate (photo-exposed group (under the light for 1 hr before treatment), 3 μM, listed as Photo-H-co): 52932 CPM and 46313 CPM and 40358 CPM | radioactivity (CPM), single wells of triplicate (photo-exposed group (under the light for 1 hr before treatment), 10 μM, listed as Photo-H-co): 42615 CPM and 39452 CPM and 33765 CPM | radioactivity (CPM), single wells of triplicate (photo-exposed group (under the light for 1 hr before treatment), 30 μM, listed as Photo-H-co): 34824 CPM and 37105 CPM and 32225 CPM | radioactivity (CPM), single wells of triplicate (photo-exposed group (under the light for 1 hr before treatment), 100 μM, listed as Photo-H-co): 37189 CPM and 23765 CPM and 30994 CPM | radioactivity (CPM), single wells of triplicate (photo-nonexposed group, 10 μm): 41967 CPM and 33493 CPM and 38243 CPM | radioactivity (CPM), single wells of triplicate (photo-nonexposed group, 30 μm): 33669 CPM and 34662 CPM and 34340 CPM | radioactivity (CPM), single wells of triplicate (photo-nonexposed group, 100 μm): 28541 CPM and 26247 CPM and 29747 CPM | radioactivity (CPM), single wells of triplicate (photo-nonexposed group, 500 μm): 14806 CPM and 11254 CPM and 13198 CPM

cyanocobalamin [C-co]
% of inhibition = [cpm (untreated) - cpm(treated)] / cpm (untreated) [2]: 4.28% and 11.95% and 9.071% | radioactivity (CPM), single wells of triplicate (photo-exposed group (under the light for 1 hr before treatment), 3 μM, listed as Photo-C-co): 41161 CPM and 57338 CPM and 56253 CPM | radioactivity (CPM), single wells of triplicate (photo-exposed group (under the light for 1 hr before treatment), 10 μM, listed as Photo-C-co): 39141 CPM and 36381 CPM and 39492 CPM | radioactivity (CPM), single wells of triplicate (photo-exposed group (under the light for 1 hr before treatment), 30 μM, listed as Photo-C-co): 38702 CPM and 34451 CPM and 34078 CPM | radioactivity (CPM), single wells of triplicate (photo-exposed group (under the light for 1 hr before treatment), 100 μM, listed as Photo-C-co): 50511 CPM and 27692 CPM and 30567 CPM | radioactivity (CPM), single wells of triplicate (photo-nonexposed group, 10 μm): 43413 CPM and 39935 CPM and 41240 CPM | radioactivity (CPM), single wells of triplicate (photo-nonexposed group, 30 μm): 42882 CPM and 30722 CPM and 40187 CPM | radioactivity (CPM), single wells of triplicate (photo-nonexposed group, 100 μm): 41663 CPM and 48408 CPM and 39928 CPM | radioactivity (CPM), single wells of triplicate (photo-nonexposed group, 500 μm): 36303 CPM and 40107 CPM

C/C1=C2/[N-][C@H]([C@H](CC(N)=O)[C@@]2(C)CCC(=O)NC[C@@H](C)OP(=O)([O-])O[C@H]2[C@@H](O)[C@@H](n3cnc4cc(C)c(C)cc43)O[C@@H]2CO)[C@]2(C)N=C(/C(C)=C3N=C(/C=C4N=C1[C@@H](CCC(N)=O)C\4(C)C)[C@@H](CCC(N)=O)[C@]\3(C)CC(N)=O)[C@@H](CCC(N)=O)[C@]2(C)CC(N)=O.[CH2-][C@H]1O[C@@H](n2cnc3c(N)ncnc32)[C@H](O)[C@@H]1O.[Co] [A-co, adenosylcobalamin]
% of inhibition = [cpm (untreated) - cpm(treated)] / cpm (untreated) [2]: 57.9% and 58.03% and 60.21% | % of inhibition = [cpm (untreated) - cpm(treated)] / cpm (untreated) (30 μM): 66.99% and 77.79% and 83.85% | % of inhibition = [cpm (untreated) - cpm(treated)] / cpm (untreated) (100 μM): 89.85% and 91.31% and 95.18% | % of inhibition = [cpm (untreated) - cpm(treated)] / cpm (untreated) [1]: 96.51% and 97.48% and 98.07% | radioactivity (CPM), single wells of triplicate (photo-exposed group (under the light for 1 hr before treatment), 3 μM, listed as Photo-A-co): 26305 CPM and 14772 CPM and 24306 CPM | radioactivity (CPM), single wells of triplicate (photo-exposed group (under the light for 1 hr before treatment), 10 μM, listed as Photo-A-co): 2225 CPM and 3123 CPM and 1922 CPM | radioactivity (CPM), single wells of triplicate (photo-exposed group (under the light for 1 hr before treatment), 30 μM, listed as Photo-A-co): 997 CPM and 1091 CPM and 1391 CPM | radioactivity (CPM), single wells of triplicate (photo-exposed group (under the light for 1 hr before treatment), 100 μM, listed as Photo-A-co): 696 CPM and 1259 CPM and 1333 CPM | radioactivity (CPM), single wells of triplicate (photo-nonexposed group, 10 μm): 19094 CPM and 19033 CPM and 18047 CPM | radioactivity (CPM), single wells of triplicate (photo-nonexposed group, 30 μm): 14064 CPM and 10071 CPM and 7326 CPM | radioactivity (CPM), single wells of triplicate (photo-nonexposed group, 500 μm): 1585 CPM and 1141 CPM and 875 CPM

C/C1=C2/[N-][C@H]([C@H](CC(N)=O)[C@@]2(C)CCC(=O)NC[C@H](C)OP(=O)([O-])O[C@H]2[C@@H](O)[C@@H](n3cnc4cc(C)c(C)cc43)O[C@@H]2CO)[C@]2(C)N=C(/C(C)=C3N=C(/C=C4N=C1[C@@H](CCC(N)=O)C\4(C)C)[C@@H](CCC(N)=O)[C@]\3(C)CC(N)=O)[C@@H](CCC(N)=O)[C@]2(C)CC(N)=O.[CH3-].[Co+3] [M-co, methylcobalamin]
% of inhibition = [cpm (untreated) - cpm(treated)] / cpm (untreated) [1]: 49.98% and 36.23% and 45.1184% | radioactivity (CPM), single wells of triplicate (photo-exposed group (under the light for 1 hr before treatment), 3 μM, listed as Photo-M-co): 33467 CPM and 32885 CPM and 50368 CPM | radioactivity (CPM), single wells of triplicate (photo-exposed group (under the light for 1 hr before treatment), 10 μM, listed as Photo-M-co): 42973 CPM and 43693 CPM and 41162 CPM | radioactivity (CPM), single wells of triplicate (photo-exposed group (under the light for 1 hr before treatment), 30 μM, listed as Photo-M-co): 18844 CPM and 28639 CPM and 29522 CPM | radioactivity (CPM), single wells of triplicate (photo-nonexposed group, 10 μm): 37594 CPM and 43624 CPM and 44951 CPM | radioactivity (CPM), single wells of triplicate (photo-nonexposed group, 30 μm): 36641 CPM and 28896 CPM and 40298 CPM | radioactivity (CPM), single wells of triplicate (photo-nonexposed group, 100 μm): 37066 CPM and 30678 CPM and 39514 CPM | radioactivity (CPM), single wells of triplicate (photo-nonexposed group, 500 μm): 22687 CPM and 28924 CPM and 24891 CPM
